Laboratory results: a melting point compilation (Tetko et al.; mined from patent text by program, amines drawn as free bases though some values may be those of a salt)

melting point [°C] | SMILES
76 to 77 | CCC(C(=O)c1ccc(N(CCN(CC)CC)S(C)(=O)=O)cc1)c1ccccc1 (centres undefined)
79 to 81 | CCCOc1cccc(C2(c3cccs3)N=C(N)N(C)C2=O)c1 (centres undefined)
112 | O=S(=O)(CCc1ccc(O)cc1)CC1CCC1
152 to 153 | CCc1noc(-c2cn(-c3cccnc3)cn2)n1
177 to 179 | Oc1nc2cccnc2n1Cc1ccccc1
150 | c1ccc(-c2cn(C3CCCN4CCCCC34)nn2)cc1 (centres undefined)
> 260 | O=C1c2ccccc2C(=O)c2sc(-c3ccc(F)cc3)nc21
60 | O=c1c2ccccc2nnn1CCCN1CCC(c2c[nH]c3ccccc23)CC1
200 to 201 | O=C1CC(c2cccc(-n3ccnc3)c2)=Nc2ccc(-c3cccc(F)c3)cc2N1
118 | COC(=O)c1ccc(Cc2cc3cc(Cl)ccc3[nH]2)cc1
166 to 168 | CC1Oc2cc(F)ccc2NC1=O (centres undefined)
234 to 237 | S=c1[nH]c(=S)c2ccccc2[nH]1
129 to 131 | COc1cc2c(c3c1OC(C)(C)C3)C(c1cccc(C(=O)NC(C)(C)C(N)=O)c1)=NC(C)(C)C2
187 to 189 | CCC1=Nc2nc(C3CCCC3)[nH]c2C2=N[C@H](Cc3ccccc3)CN12
160 to 162 | CCN(CC)CCN1C(=O)Nc2ncccc2C1c1ccccc1 (centres undefined)
144 to 145 | COc1ccc2nc(Cl)cc(C)c2c1
115 to 118 | Cn1c(C(F)(F)F)ccc(-c2cc([N+](=O)[O-])c(F)cc2F)c1=O
120 to 123 | O=C(O)COCCOCCN1CCC(=C(c2ccccc2)c2ccccc2)CC1
225 to 228 | CCCOc1ccc(S(=O)(=O)N2CCN(C)CC2)cc1-c1nc2cc(Cl)c([N+](=O)[O-])cc2c(=O)[nH]1
291 to 292 | COc1c(F)c(F)c(N)c2c(=O)c(C(=O)O)cn(C3CC3)c12
150 to 154 | COCc1nc(C=NNC(=S)SC)c[nH]1
132 | CCN(C(=O)C(F)(F)F)c1ccc(C(=O)O)cc1
135 to 136 | CCOC(=O)CCCC(=O)CNC(=O)c1csc(NC(=O)NCc2ccccc2)n1

melting point [°C] | SMILES
192 to 193 | COc1cc(Nc2c(C#N)cnc3cc(Br)ccc23)c(Cl)cc1Cl
135 | NC(=O)CN(c1ccc(Cl)cc1C(O)c1ccccc1Cl)S(=O)(=O)c1ccc(Cl)c(Cl)c1 (centres undefined)
110 to 111 | COC(=O)C1C=CCn2c(=O)n(CSC(C)=O)c(=O)n21 (centres undefined)
160 to 161 | Cc1ccc(O)c(CNc2nc(NC[C@@H](C)O)nc3c2ncn3C(C)C)c1
282 to 284 | Sc1nc2cnc3ccccc3c2s1
66 | CON(C)C(=O)CN1CCC(CCN2CCN(c3cccc(C)c3C)CC2)CC1
182 to 184 | CC(C)CC(=O)Nc1cccc(-c2ccnc3c(-c4cccc(N(C)C)c4)cnn23)c1
331 to 335 | NC(=O)c1nc(-c2cccnc2O)nc2c1[nH]c(=O)n2-c1ccccc1C(F)(F)F
165 to 167 | Cc1c(NC(=O)C(CSC(=O)OCC(C)C)Cc2ccccc2)cccc1C(=O)O (centres undefined)
99.5 to 101 | CS(=O)(=O)c1cccc(S(N)(=O)=O)c1
95 to 98 | c1ccc(COc2ccc([C@H]3CC[C@@H](NCCOc4ccccc4)CC3)cc2)cc1
295 | CC1(C)Cc2c(c(N3CCCC3)nc3sc4c(NCc5ccc(S(N)(=O)=O)cc5)ncnc4c23)CO1
141 to 142 | O=S(=O)(ON=C1CCCc2ccccc21)c1ccc(O)cc1
68 to 72 | CCOC(=O)c1cc(CC)cnc1CNC(C)(C(N)=O)C(C)C (centres undefined)
239 to 241 | CC(=NNc1ccccc1)c1ccc(N2CCN(c3c(C)nc(N)nc3N)CC2)cc1
128 to 130 | CN(C)c1cc(C(O)CS(C)(=O)=O)cc(N(C)C)c1 (centres undefined)
112 to 114 | CC(=O)Sc1cccs1
217 to 218 | Cc1c(NC(=O)c2ccc(-c3cc4ccccc4o3)cc2)ccc2cc(CN3CCCC3)cnc12
97 to 99 | COc1cc(C)c(C(=O)c2c(OC)cnc(Br)c2Cl)c(OC)c1OC
44 to 47 | CCN(CC)C(=O)n1cnc(S(=O)(=O)Cl)n1
91 to 93 | C#CCON=C(C(C)=NOCc1ccccc1C(=COC)C(=O)OC)c1ccc(F)cc1
> 250 | Nc1nc2c(ncn2C2C=CC(CO)C2)c(=S)[nH]1 (centres undefined)
173 | O=C(CN1CCN(C(c2ccc(F)cc2)c2ccc(F)cc2)CC1)Nc1cccc2ccccc12

melting point [°C] | SMILES
255 to 258 | Cc1ccc2c(c1)c(C)c1n2C(=O)C(Cc2nc[nH]c2C)CC1 (centres undefined)
85 | COc1c(CCc2ccc(F)cc2)cc(Cl)cc1C(N)=O
162 | CC1=C(C(=O)OCCN(C)Cc2ccccc2)C(c2cccc([N+](=O)[O-])c2)c2c(N)nc(N)nc2N1 (centres undefined)
134 | O=C(NC1CCCCC1)c1ccc(F)c2c1CC(N(CCCc1c[nH]c3ccc(F)cc13)C1CCC1)CO2 (centres undefined)
210 to 212 | COC(=O)c1cccc2nc(OCC(F)(F)F)n(Cc3ccc(-c4ccccc4-c4nnn[nH]4)cc3)c12
85 to 89 | CCCCCCCCCCCCc1c[nH]c2cc(C(=O)OC)ccc12
65 to 73 | COC(=O)CCc1ccc(OCC(C)NCC(O)c2cccc(Cl)c2)cc1 (centres undefined)
110 to 111 | CCOC(=O)C(Cc1cccnc1)c1nnc2c(CC(C)C)nc(-c3ccccc3)cn12 (centres undefined)
173 to 175 | CCCCn1nc2c(N)nc3c(c2c1CCS(=O)(=O)CCC)CCCC3
110 to 112 | C=Cc1ccc(COc2ccc(CCl)cc2)cc1
125 | CCCCN(c1nc(NCCCCCCN)nc(N(CCCC)C2CC(C)(C)N(C)C(C)(C)C2)n1)C1CC(C)(C)N(C)C(C)(C)C1
117 | C[C@@H](CN(Cc1ccccc1)Cc1ccccc1)OC(=O)N1C(C)(C)COC1(C)C
214 to 216 | N#Cc1cn(C2CCc3ccccc3NC2=O)nn1 (centres undefined)
122 to 124 | Cc1nc(-c2ccccc2)nc(-c2cccc([N+](=O)[O-])c2)c1C(=O)NCCN(C)C
287 | O=C1/C(=C/c2c[nH]c3ncc(Cl)cc23)N=C(Oc2ccccc2)N1c1ccccc1
39 to 46 | CC(C)(C)c1ccc(Sc2ccc(Br)cc2)cc1
245 to 247 | c1ccc2c(c1)CCc1c(N3CCN(Cc4c[nH]c5ncccc45)CC3)n[nH]c1-2
120 to 123 | O=C(c1ccc(F)cc1)N1CCC[C@H](c2noc(-c3ccc(F)cc3)n2)C1
208 to 210 | COc1cc2ncc(C#N)c(Nc3ccc(CCO)cc3)c2cc1OC
218 to 220 | CC1=C(S(C)(=O)=O)C(c2ccc(Cl)c(Cl)c2)C2=C(CCC2=O)N1 (centres undefined)
216 to 217 | Cc1ccc(Cc2cc3c(cc2/C=C/c2ccc(C(=O)O)cc2)C(C)(C)CCC3(C)C)cc1
211 to 212 | CC(C)[C@H](NC(=O)OCc1ccccc1)C(=O)NCCCNC(=O)[C@@H](NC(=O)OCc1ccccc1)C(C)C
126 to 127 | COC(=O)COc1cc2c(c(Cl)c1Cl)C(=O)C(CC#C[Si](C)(C)C)(c1ccccc1)C2 (centres undefined)

melting point [°C] | SMILES
98 to 99 | OCc1coc(-c2cccs2)n1
167 to 168 | Cc1ccn2c(CN(C)C)c(-c3ccc4sc(=O)n(C)c4c3)nc2c1
243 to 244 | CS(=O)(=O)c1ccc(C(CC2CCCC2)C(=O)Nc2ncc[nH]2)cc1[N+](=O)[O-] (centres undefined)
> 300 | CS(=O)(=O)Oc1ccc2c(c1)[nH]c(=O)c1c3ccc(OS(C)(=O)=O)cc3oc21
120 | COc1ccc(CSc2nc(-c3ccccc3)n(Cc3cc4c(cc3Cl)OCO4)c2C=O)cc1
199 to 200 | CC1CC2=C(N3CN(C)N=C3C(c3ccccc3Cl)=NC2)S1=O (centres undefined)
158 to 159 | CCOC(=O)CNC(=O)Nc1ccc(OC)cc1F
119 | CCC(O)CCCOc1ccccc1Oc1ccccc1OCCCC(O)CC (centres undefined)
149 to 150 | O=C1CCCCN1C1=CC(CF)(CF)Oc2ccc(C(F)(F)C(F)(F)F)cc21
170 to 172 | Nc1cc(C(O)=S)cc(SCc2ccccc2)c1-c1ccccc1
112 | CCCCOc1cc(/C=C(\OCC)C(=O)O)ccc1OCCc1ccc(N(C)S(C)(=O)=O)cc1
109 to 110 | CCc1ccc2c(c1)c1cc(OC)cc3c(=O)c(Cc4cccnc4)cn2c31
192 to 193 | Cc1cc(F)ccc1[C@@H]1CN(C2=CC(=O)CC2)CC[C@H]1C(=O)N(C)Cc1cc(C(F)(F)F)cc(C(F)(F)F)c1 (relative stereo)
152 to 154 | CN(C(=O)/C=C/CSc1nc(N)cc(Cl)n1)c1ccccc1
64 to 66 | CC1(C)Oc2ccc(OC(F)(F)F)cc2[C@@H](NC(=O)c2ccc(Cl)cc2[N+](=O)[O-])[C@@H]1O
57 to 58 | CCNC1=NN(c2ccc(Cl)cc2)C(C)C1 (centres undefined)
74 | C1=CCC(OC2=CC=CC2)=C1
306 to 307 | CC(C)(C(=O)O)c1ccc(C(=O)Nc2cn3cc(-c4cn[nH]c4)ccc3n2)cc1
172 to 174 | CCCCOc1cc(/C=C/C(=O)O)n(Cc2ccc(C(F)(F)F)cc2Cl)n1
187 to 189 | CCOCc1nc2c(N)nc3ccccc3c2n1CCC(=O)N1CCOCC1
258 to 260 | CC(=NNc1ccc(C2=NNC(=O)CC2)cc1)c1ccnnc1
137 to 138 | COC(=O)[C@H](CCC(=O)O)N1C(=O)c2ccccc2C1=O
188 | Cc1cccc(-c2nc(N)sc2-c2ccc3ncccc3n2)n1

SMILES | melting point [°C]
CC1(C)C2CC[C@@]1(N1CCCCC1)C(=O)C2 | 78 to 79
C1=C(c2c[nH]c3ccccc23)CCN(CC2COc3ccc4c(c3O2)OCCC4)C1 (centres undefined) | 140
CN1CCN(C2CC3C4CCC5CC(O)C(N6CCC7(CC6)OCCO7)CC5(C)C4CCC3(C)C2O)CC1 (centres undefined) | 185 to 187
Cc1ccc(C23CCN(C)CC2O3)cc1 (centres undefined) | 46 to 50
Fc1cc(F)c2[nH]c(-c3ccccc3)c(CCN3CCCCC3)c2c1 | 185 to 187
COC(=O)c1cc(OP(=S)(OC)OC)c(C(=O)OC)s1 | 71
CC(C)NCC(O)c1ccc(N)c(C#N)c1 (centres undefined) | 159 to 161
